Assay [1] addresses 5-hydroxytryptamine receptor 2A (Homo sapiens, UniProt P28223). Nature of the assay: Displacement of [3H]Ketanserin from human 5HT2A receptor expressed in HEK293 cells. (In general: Displacement assays read how much labelled ligand stays bound in the presence of the test substance.)
The target in assay [2] is T1, D(2) dopamine receptor (Homo sapiens, UniProt P14416). Nature of the assay: Displacement of [3H]Spiperone from human dopamine D2 receptor expressed in HEK293 cells.
Assay [3] concerns the target Dopamine D1 receptor. Briefly: Displacement of [3H]SCH23390 from rat dopamine D1 receptor expressed in HEK293 cells.
The target in assay [4] is T1, D(2) dopamine receptor. Nature of the assay: Displacement of […] from human dopamine D2 receptor expressed in HEK293 cells. Format: cell-based.

We go through nine molecules from ChEMBL document CHEMBL1144215, “N-Propylnoraporphin-11-O-yl carboxylic esters as potent dopamine D(2) and serotonin 5-HT(1A) receptor dual ligands” (Bioorg Med Chem, 2008).

Structures are written as SMILES. Some results are limits rather than exact numbers.

T1 sequence (P14416 whole entry): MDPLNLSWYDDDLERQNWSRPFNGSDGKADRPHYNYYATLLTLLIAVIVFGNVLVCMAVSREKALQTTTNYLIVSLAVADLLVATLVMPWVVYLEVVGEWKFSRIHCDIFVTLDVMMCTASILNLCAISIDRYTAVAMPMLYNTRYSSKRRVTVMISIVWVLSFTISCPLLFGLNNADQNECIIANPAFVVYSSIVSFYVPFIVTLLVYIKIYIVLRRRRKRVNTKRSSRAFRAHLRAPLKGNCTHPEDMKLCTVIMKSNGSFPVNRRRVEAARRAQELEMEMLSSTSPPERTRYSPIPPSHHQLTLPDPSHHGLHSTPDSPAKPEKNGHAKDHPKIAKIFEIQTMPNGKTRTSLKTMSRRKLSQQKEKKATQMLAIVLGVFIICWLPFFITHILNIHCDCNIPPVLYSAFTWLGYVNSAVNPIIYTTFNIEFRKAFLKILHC
Chain of 5-hydroxytryptamine receptor 2A (P28223 whole entry): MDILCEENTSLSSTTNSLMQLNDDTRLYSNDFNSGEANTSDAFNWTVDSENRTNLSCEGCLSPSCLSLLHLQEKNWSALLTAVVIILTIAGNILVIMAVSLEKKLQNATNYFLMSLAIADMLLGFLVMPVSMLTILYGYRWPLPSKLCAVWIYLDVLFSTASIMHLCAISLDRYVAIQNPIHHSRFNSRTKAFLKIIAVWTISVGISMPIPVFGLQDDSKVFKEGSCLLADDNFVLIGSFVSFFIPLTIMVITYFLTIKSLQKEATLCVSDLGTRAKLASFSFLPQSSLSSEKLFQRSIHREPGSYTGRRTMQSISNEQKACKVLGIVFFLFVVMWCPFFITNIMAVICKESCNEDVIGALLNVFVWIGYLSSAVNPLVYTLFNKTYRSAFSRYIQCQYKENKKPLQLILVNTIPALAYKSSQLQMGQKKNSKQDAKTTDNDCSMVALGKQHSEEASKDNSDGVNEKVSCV

The term Ki denotes a measure of affinity in units of concentration, obtained from inhibition or displacement. Low values mean tighter binding, high ones weaker binding. With `CCCN1CCc2cccc3c2[C@H]1Cc1cccc(OC(C)=O)c1-3`, in assay [1], the Ki was determined as 72 nM.
As for `CCCC(=O)Oc1cccc2c1-c1cccc3c1[C@@H](C2)N(CCC)CC3`, the Ki is greater than 10000 nM in assay [2], greater than 10000 nM in assay [3] and 56 nM in assay [1].
Take `CCCN1CCc2cccc3c2[C@H]1Cc1cccc(OC(=O)CC)c1-3`: the affinity in assay [1], expressed as Ki, was 109 nM.
For the molecule `CCCCCC(=O)Oc1cccc2c1-c1cccc3c1[C@@H](C2)N(CCC)CC3`, the Ki in assay [2] is greater than 10000 nM; in assay [3], greater than 10000 nM; in assay [1] it was 109 nM.
As for `CCCN1CCc2cccc3c2[C@H]1Cc1cccc(OC(=O)CNC(=O)OCc2ccccc2)c1-3`, the inhibition constant (Ki) in assay [2], in assay [3] and in assay [1] was greater than 10000 nM in each case.
Regarding `CCCCC(=O)Oc1cccc2c1-c1cccc3c1[C@@H](C2)N(CCC)CC3`, the Ki in assay [2] is greater than 10000 nM; in assay [1], 92 nM.
`CCCCCCC(=O)Oc1cccc2c1-c1cccc3c1[C@@H](C2)N(CCC)CC3`: in assay [1], the Ki is 95 nM.
On the same count and under the same terms, to `CCCN1CCc2cccc3c2[C@H]1Cc1cccc(O)c1-3` belongs 114 nM.
Turning to `CCCN1CCc2cccc3c2[C@H]1Cc1cccc(OC(=O)CCCC(=O)Oc2cccc4c2-c2cccc5c2[C@@H](C4)N(CCC)CC5)c1-3`, the Ki in assay [4] was greater than 10000 nM.
